Source: PubChem BioAssay (NCI)
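Results reflect a 48-hour exposure of cells in 96-well plates to compound at five concentrations. GI50: concentration for 50% inhibition of growth. The concentration for full growth arrest is given as TGI.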

Columns and labels:
Assay in all cases: NCI-60 cell line screen, 48 h
CAKI-1 renal = test system: CAKI-1 renal
K-562 leukemia = test system: K-562 leukemia
HCC-2998 colon = test system: HCC-2998 colon
LOX IMVI melanoma = test system: LOX IMVI melanoma
OVCAR-4 ovarian = test system: OVCAR-4 ovarian
OVCAR-5 ovarian = test system: OVCAR-5 ovarian
SNB-75 CNS = test system: SNB-75 CNS
MALME-3M melanoma = test system: MALME-3M melanoma
TK-10 renal = test system: TK-10 renal
UACC-257 melanoma = test system: UACC-257 melanoma
SK-MEL-2 melanoma = test system: SK-MEL-2 melanoma
BT-549 breast = test system: BT-549 breast
CCRF-CEM leukemia = test system: CCRF-CEM leukemia
SF-268 CNS = test system: SF-268 CNS
NCI-H522 lung = test system: NCI-H522 lung
NCI-H23 lung = test system: NCI-H23 lung
COLO 205 colon = test system: COLO 205 colon
UO-31 renal = test system: UO-31 renal
HT29 colon = test system: HT29 colon
MDA-MB-435 = test system: MDA-MB-435
SNB-19 CNS = test system: SNB-19 CNS
ACHN renal = test system: ACHN renal
HCT-15 colon = test system: HCT-15 colon
SW-620 colon = test system: SW-620 colon
M14 melanoma = test system: M14 melanoma
MDA-MB-231 breast = test system: MDA-MB-231 breast
HL-60(TB) leukemia = test system: HL-60(TB) leukemia
SF-295 CNS = test system: SF-295 CNS
NCI/ADR-RES ovarian = test system: NCI/ADR-RES ovarian
UACC-62 melanoma = test system: UACC-62 melanoma
OVCAR-3 ovarian = test system: OVCAR-3 ovarian
A549 NSCLC = test system: A549 NSCLC
HOP-62 NSCLC = test system: HOP-62 NSCLC
A498 renal = test system: A498 renal
DU-145 prostate = test system: DU-145 prostate
SK-MEL-5 melanoma = test system: SK-MEL-5 melanoma
IGROV1 ovarian = test system: IGROV1 ovarian
RPMI-8226 leukemia = test system: RPMI-8226 leukemia
SN12C renal = test system: SN12C renal
T-47D breast = test system: T-47D breast
786-0 renal = test system: 786-0 renal
MCF7 breast = test system: MCF7 breast
MOLT-4 leukemia = test system: MOLT-4 leukemia
SR leukemia = test system: SR leukemia
HCT-116 colon = test system: HCT-116 colon
KM12 colon = test system: KM12 colon
HOP-92 NSCLC = test system: HOP-92 NSCLC
SK-OV-3 ovarian = test system: SK-OV-3 ovarian
NCI-H460 lung = test system: NCI-H460 lung
HS 578T breast = test system: HS 578T breast
SF-539 CNS = test system: SF-539 CNS
EKVX NSCLC = test system: EKVX NSCLC
PC-3 prostate = test system: PC-3 prostate
U251 CNS = test system: U251 CNS
NCI-H226 lung = test system: NCI-H226 lung
OVCAR-8 ovarian = test system: OVCAR-8 ovarian
RXF 393 renal = test system: RXF 393 renal
SK-MEL-28 melanoma = test system: SK-MEL-28 melanoma

In the case of `COc1ccc2c(c1OC)-c1c(c3ccc([N+](=O)[O-])cc3c(=O)n1CCCN)C2=O`, the GI50 (CAKI-1 renal) was 9.49 µM, the TGI (CAKI-1 renal) was 24.7 µM and the GI50 (K-562 leukemia) was 1.01 µM. It also gave a TGI (K-562 leukemia) of 3.94 µM, a GI50 (HCC-2998 colon) of 3.87 µM and a TGI (HCC-2998 colon) of 7.8 µM. The GI50 (LOX IMVI melanoma) was 3.18 µM, the TGI (LOX IMVI melanoma) was 7.26 µM and the GI50 (OVCAR-4 ovarian) was 5.49 µM. For the same molecule, the TGI (OVCAR-4 ovarian) was 12.1 µM, the GI50 (OVCAR-5 ovarian) was 5.31 µM and the TGI (OVCAR-5 ovarian) was 9.74 µM. The TGI (SNB-75 CNS) was 1.56 µM, the GI50 (MALME-3M melanoma) was 4.97 µM and the TGI (MALME-3M melanoma) was 10.5 µM. For the same molecule, the GI50 (TK-10 renal) was 5.72 µM, the TGI (TK-10 renal) was 12 µM and the GI50 (UACC-257 melanoma) was 4.97 µM. It also gave a TGI (UACC-257 melanoma) of 9.74 µM, a GI50 (SK-MEL-2 melanoma) of 4.56 µM and a TGI (SK-MEL-2 melanoma) of 9.77 µM. It also gave a GI50 (BT-549 breast) of 4.19 µM, a TGI (BT-549 breast) of 9.24 µM and a GI50 (CCRF-CEM leukemia) of 1.27 µM. For the same molecule, the TGI (CCRF-CEM leukemia) was 3.64 µM, the GI50 (SF-268 CNS) was 3.54 µM and the TGI (SF-268 CNS) was 13.6 µM. The GI50 (NCI-H522 lung) was 3.54 µM, the TGI (NCI-H522 lung) was 9.33 µM and the GI50 (NCI-H23 lung) was 4.7 µM. It also gave a TGI (NCI-H23 lung) of 9.19 µM, a GI50 (COLO 205 colon) greater than 100 µM and a TGI (COLO 205 colon) greater than 100 µM. The GI50 (UO-31 renal) was 3.81 µM, the TGI (UO-31 renal) was 7.89 µM and the GI50 (HT29 colon) was 1.6 µM. It also gave a TGI (HT29 colon) of 8 µM, a GI50 (MDA-MB-435) of 12.7 µM and a TGI (MDA-MB-435) of 28.2 µM. For the same molecule, the TGI (SNB-19 CNS) was greater than 20.2 µM, the GI50 (ACHN renal) was 0.749 µM and the TGI (ACHN renal) was 3.33 µM. It also gave a GI50 (HCT-15 colon) of 3.37 µM, a TGI (HCT-15 colon) of 7.11 µM and a GI50 (SW-620 colon) of 0.573 µM. It also gave a TGI (SW-620 colon) of 4.81 µM, a GI50 (M14 melanoma) of 7.27 µM and a TGI (M14 melanoma) of 20.8 µM. For the same molecule, the GI50 (MDA-MB-231 breast) was 1.87 µM, the TGI (MDA-MB-231 breast) was 3.95 µM and the GI50 (HL-60(TB) leukemia) was 1.35 µM. The TGI (HL-60(TB) leukemia) was 2.63 µM, the GI50 (SF-295 CNS) was 5.72 µM and the TGI (SF-295 CNS) was 11.5 µM. For the same molecule, the GI50 (NCI/ADR-RES ovarian) was 4.83 µM, the TGI (NCI/ADR-RES ovarian) was 9.76 µM and the GI50 (UACC-62 melanoma) was 3.52 µM. The TGI (UACC-62 melanoma) was 7.32 µM, the GI50 (OVCAR-3 ovarian) was 16.2 µM and the TGI (OVCAR-3 ovarian) was 32.6 µM. For the same molecule, the GI50 (A549 NSCLC) was 4.37 µM, the TGI (A549 NSCLC) was 9.27 µM and the GI50 (HOP-62 NSCLC) was 10.7 µM. The TGI (HOP-62 NSCLC) was 23.9 µM, the GI50 (A498 renal) was 3.03 µM and the TGI (A498 renal) was 14.3 µM. It also gave a GI50 (DU-145 prostate) of 3.36 µM, a TGI (DU-145 prostate) of 7.8 µM and a GI50 (SK-MEL-5 melanoma) of 4.33 µM. The TGI (SK-MEL-5 melanoma) was 8.82 µM, the GI50 (IGROV1 ovarian) was 2.02 µM and the TGI (IGROV1 ovarian) was 6.78 µM. It also gave a GI50 (RPMI-8226 leukemia) of 1.01 µM, a TGI (RPMI-8226 leukemia) of 3.32 µM and a GI50 (SN12C renal) of 3.79 µM. The TGI (SN12C renal) was 7.86 µM, the TGI (T-47D breast) was greater than 20.1 µM and the GI50 (786-0 renal) was 4.76 µM. For the same molecule, the TGI (786-0 renal) was 9.22 µM, the GI50 (MCF7 breast) was 1.89 µM and the TGI (MCF7 breast) was 13.9 µM. It also gave a GI50 (MOLT-4 leukemia) of 0.692 µM, a TGI (MOLT-4 leukemia) of 3.68 µM and a GI50 (SR leukemia) of 0.1 µM. The TGI (SR leukemia) was 0.272 µM, the GI50 (HCT-116 colon) was 4.99 µM and the TGI (HCT-116 colon) was 9.23 µM. For the same molecule, the GI50 (KM12 colon) was 4.31 µM, the TGI (KM12 colon) was 10.7 µM and the GI50 (HOP-92 NSCLC) was 12.3 µM. The TGI (HOP-92 NSCLC) was 27.1 µM, the GI50 (SK-OV-3 ovarian) was 7.9 µM and the TGI (SK-OV-3 ovarian) was 17.6 µM. The GI50 (NCI-H460 lung) was 3.47 µM, the TGI (NCI-H460 lung) was 12.3 µM and the GI50 (HS 578T breast) was 5.32 µM. The TGI (HS 578T breast) was 12 µM, the GI50 (SF-539 CNS) was 4.42 µM and the TGI (SF-539 CNS) was 9.02 µM. It also gave a GI50 (EKVX NSCLC) of 4.98 µM, a TGI (EKVX NSCLC) of 11 µM and a GI50 (PC-3 prostate) of 4.59 µM. The TGI (PC-3 prostate) was 10.5 µM, the GI50 (U251 CNS) was 1.83 µM and the TGI (U251 CNS) was 5.76 µM. The GI50 (NCI-H226 lung) was 3.95 µM, the TGI (NCI-H226 lung) was 8.79 µM and the GI50 (OVCAR-8 ovarian) was 3.53 µM. The TGI (OVCAR-8 ovarian) was 12.9 µM, the GI50 (RXF 393 renal) was 4.32 µM and the TGI (RXF 393 renal) was 10.1 µM. The GI50 (SK-MEL-28 melanoma) was 5.34 µM and the TGI (SK-MEL-28 melanoma) was 10.4 µM.
